Paper PMC5209718, “Piscidin-1-analogs with double L- and D-lysine residues exhibited different conformations in lipopolysaccharide but comparable anti-endotoxin activities” (Scientific Reports, 2017)
≈ marks a conversion by molar mass, not a printed value. Where two headings read alike, the source gives them in different places. Residues, ends and D or L forms follow the SMILES beside them.

Key:
[1] = system: Staphylococcus aureus (ATCC BAA-44 MRSA); assay: microbe, parasite or virus in culture
Description: (§1) Piscidin-1 and its analogs were examined for bacterial growth-inhibiting activity in liquid cultures against Gram-positive bacteria including MRSA strains and Gram-negative bacteria (Table 2). […] The therapeutic index is a parameter that signify the specificity or selectivity of antimicrobial agents towards microorganisms over mammalian cells.
(§2) Antibacterial assays with all the peptides were done in 96-well microtiter plates against different Gram-positive, Gram-negative and resistant bacteria as described earlier.

[2] = system: Staphylococcus aureus (ATCC 1708 MRSA); assay: microbe, parasite or virus in culture
Description: as §1, §2

[3] = system: Staphylococcus aureus (ATCC 700699 MRSA); assay: microbe, parasite or virus in culture
Description: as §1, §2

[4] = system: Staphylococcus aureus (ATCC 700698 MRSA); assay: microbe, parasite or virus in culture
Description: as §1, §2

[5] = system: Staphylococcus aureus (ATCC 33592 Gentamycin Resistant); assay: microbe, parasite or virus in culture
Description: as §1, §2

E. coli (ATCC 25922) = assay: Antibacterial activity (MIC), liquid culture in 96-well microtiter plates; assay type: cell-based; conditions: read-out: Minimum inhibitory conc. (MIC) against bacteria 11
Description: as §1, §2

[6] = system: K. pneumoniae (ATCC 27736); assay: microbe, parasite or virus in culture; assay type: cell-based; conditions: for MIC: K. pneumoniae (ATCC 27736), means of three independent experiments each in duplicate ± SD, read-out: Minimum inhibitory conc. (MIC) against bacteria 10; for Minimum inhibitory conc. (MIC) against bacteria 10: ATCC 27736
Description: as §1, §2

[7] = system: Staphylococcus aureus (ATCC 29213); assay: microbe, parasite or virus in culture; assay type: cell-based; conditions: for MIC: Staphylococcus aureus (ATCC 29213), means of three independent experiments each in duplicate ± SD, read-out: Minimum inhibitory conc. (MIC) against bacteria 2; for Minimum inhibitory conc. (MIC) against bacteria 2: ATCC 29213
Description: as §1, §2

B. subtilis (ATCC 6633) = assay: microbe, parasite or virus in culture; assay type: cell-based; conditions: for MIC: B. subtilis (ATCC 6633), means of three independent experiments each in duplicate ± SD, read-out: Minimum inhibitory conc. (MIC) against bacteria 9; for Minimum inhibitory conc. (MIC) against bacteria 9: ATCC 6633
Description: as §1, §2

[8] = system: P. aeruginosa (ATCC BAA-427); assay: microbe, parasite or virus in culture; assay type: cell-based; conditions: for MIC: P. aeruginosa (ATCC BAA-427), means of three independent experiments each in duplicate ± SD, read-out: Minimum inhibitory conc. (MIC) against bacteria 8; for Minimum inhibitory conc. (MIC) against bacteria 8: ATCC BAA-427
Description: as §1, §2

[9] = system: Staphylococcus aureus (ATCC 25923); assay: microbe, parasite or virus in culture; assay type: cell-based; conditions: for MIC: Staphylococcus aureus (ATCC 25923), means of three independent experiments each in duplicate ± SD, read-out: Minimum inhibitory conc. (MIC) against bacteria 1; for Minimum inhibitory conc. (MIC) against bacteria 1: ATCC 25923
Description: as §1, §2

[10] = system: human red blood cells (hRBCs); assay type: cell-based
Description: Cytotoxic activity of piscidin-1 and its designed analogs was examined by assaying the lysis of human red blood cells (hRBCs) and the viability of murine 3T3 cells in presence of these peptides. […] Introduction of D-lysine (dK)residues instead of threonine residues at 15th & 21st positions further reduced the haemolytic activity of piscidin-1 (Fig. 1A). Overall, haemolytic activity of these peptides against hRBCs followed the order piscidin-1 > T15K-piscidin-1 > T15dK-piscidin-1 > T15,21K-piscidin-1 > T15,21dK-piscidin-1. Viability of 3T3 cells as determined by MTT assay in the presence of these peptides followed the same trend as their haemolytic activity (Fig. 1B).
Haemolytic activity of the peptides against human red blood cells in PBS was performed by assaying the ability of the peptides to lyse the hRBCs[24][48]. For this purpose, fresh human red blood cells (hRBCs) were collected in the presence of an anti-coagulant from a healthy volunteer. After washing the blood three times with PBS haemolytic activity of the peptides were determined as reported previously. Methodology of our experiment with human blood was in accordance with relevant guidelines and regulations of CSIR-central drug research institute ethics committee and was approved by it with approval No. CDRI/IEC/2014/A5. Further, informed consent was obtained from the healthy volunteer before collection of blood as per the guideline of our Institutional ethics committee.

[11] = system: E. coli 0111:B4 LPS-administered mice; assay: In vivo anti-LPS activity: survival of LPS-administered mice (septic shock); conditions: single dose 1.0 mg/kg i.p. after LPS 12 mg/kg; BALB/c mice; monitored 7 days
Description: Septic shock in BALB/c mice was induced by intraperitoneal (i.p.) injection of E. coli LPS (12 mg/kg) followed by i.p. injection of T15,21K-piscidin-1 (0.5 mg/Kg) or T15,21dK-piscidin-1 (1 mg/Kg) or polymyxin B (1 mg/Kg) ~5 min later. Mice treated with only saline was taken as control. Survival of the animals (n = 5) was monitored for 7 days (***p < 0.0001, log-rank test).
Polymyxin B was taken as the positive control and the experiments were performed as reported earlier[14][30][31].
In vivo studies, treat ment of Mice
Female BALB/c mice (National laboratory animal centre, central drug research institute,
Lucknow) we re given a s tandard laborato r y diet an d water ad libitum and housed under controlled
environmental conditions. The mice wer e approx imatel y 25 g each at the st art of experiments. All
the mice were divided into experimental groups for the administration of LPS and peptides. Mice
were treated with 12 m g/ kg E. coli 0111: B4 LPS i n presen ce and in absen ce of peptide in different
experimental groups. The mice treated with saline onl y, in absence of LP S were considered as
experimental controls. To study the efficacy of a peptide in neutralizing LPS-induced pro-
inflammatory responses in mice ~5 min post LPS treatment, the respective peptide was
administered i.p. at a site other than the one, used for LPS injection. […] Survival of mice was
monitored for 7 da ys. Survival of mice was also mo nitored following th e treatment of onl y p eptides
for investigating their toxic effects.

[12] = means of three independent experiments each in duplicate ± SD
[13] = Staphylococcus aureus (ATCC BAA-44 MRSA), means of three independent experiments each in duplicate ± SD
[14] = Staphylococcus aureus (ATCC 1708 MRSA), means of three independent experiments each in duplicate ± SD
[15] = Staphylococcus aureus (ATCC 700699 MRSA), means of three independent experiments each in duplicate ± SD
[16] = Staphylococcus aureus (ATCC 700698 MRSA), means of three independent experiments each in duplicate ± SD
[17] = Staphylococcus aureus (ATCC 33592 Gentamycin Resistant), means of three independent experiments each in duplicate ± SD

HC50, peptide concentration leading to 50% lysis of human RBC [10]	Minimum inhibitory conc. (MIC) against bacteria 5 ([1]; ATCC BAA-44)	Minimum inhibitory conc. (MIC) against bacteria 7 ([2]; ATCC 1708)	Minimum inhibitory conc. (MIC) against bacteria 3 ([3]; ATCC 700699)	Minimum inhibitory conc. (MIC) against bacteria 6 ([4]; ATCC 700698)	Minimum inhibitory conc. (MIC) against bacteria 4 ([5]; ATCC 33592)	MIC (E. coli (ATCC 25922); [12])	Minimum inhibitory conc. (MIC) against bacteria 10 [6]	Minimum inhibitory conc. (MIC) against bacteria 2 [7]	Minimum inhibitory conc. (MIC) against bacteria 9 (B. subtilis (ATCC 6633))	Minimum inhibitory conc. (MIC) against bacteria 8 [8]	Minimum inhibitory conc. (MIC) against bacteria 1 [9]	Compound	Minimum inhibitory conc. (MIC) against bacteria 5 [1, 13]	Minimum inhibitory conc. (MIC) against bacteria 7 [2, 14]	Minimum inhibitory conc. (MIC) against bacteria 3 [3, 15]	Minimum inhibitory conc. (MIC) against bacteria 6 [4, 16]	Minimum inhibitory conc. (MIC) against bacteria 4 [5, 17]	further results
–	–	–	–	–	–	–	–	–	–	–	–	CCn1cc(C(=O)O)c(=O)c2cc(F)c(N3CCNCC3)cc21 [Norfloxacin, reference compound]	–	–	–	–	–	MIC ([1]; Staphylococcus aureus, ATCCBAA44|MRSA, read-out: Minimum inhibitory conc. (MIC) against bacteria 5): 39 µM (≈ 12.5 µg/mL); MIC ([2]; Staphylococcus aureus, ATCC1708|MRSA, read-out: Minimum inhibitory conc. (MIC) against bacteria 7): > 150 µM; MIC ([3]; Staphylococcus aureus, ATCC700699|MRSA, read-out: Minimum inhibitory conc. (MIC) against bacteria 3): > 150 µM; MIC ([4]; Staphylococcus aureus, ATCC700698|MRSA, read-out: Minimum inhibitory conc. (MIC) against bacteria 6): > 150 µM; MIC ([5]; Staphylococcus aureus, ATCC33592, read-out: Minimum inhibitory conc. (MIC) against bacteria 4): 2.44 µM (≈ 0.779 µg/mL); MIC (E. coli (ATCC 25922); Escherichia coli, ATCC25922, means of three independent experiments each in duplicate ± SD): 0.125 µM (≈ 0.0399 µg/mL); MIC ([6]; Klebsiella pneumoniae, ATCC27736): 0.125 µM (≈ 0.0399 µg/mL); MIC ([7]; ATCC29213): 2.44 µM (≈ 0.779 µg/mL); MIC (B. subtilis (ATCC 6633); Bacillus subtilis, ATCC6633): 0.39 µM (≈ 0.125 µg/mL); MIC ([8]; Pseudomonas aeruginosa, ATCCBAA427): 2.19 µM (≈ 0.699 µg/mL); MIC ([9]; ATCC25923): 1.22 µM (≈ 0.39 µg/mL)
125 µM	2.5 ± 0.4 µM (≈ 6.5 µg/mL)	2.5 ± 0.4 µM (≈ 6.5 µg/mL)	10.0 ± 1.4 µM (≈ 26 µg/mL)	5.0 ± 0.7 µM (≈ 13 µg/mL)	2.5 ± 0.4 µM (≈ 6.5 µg/mL)	4.0 µM (≈ 10.4 µg/mL)	3.6 ± 0.5 µM (≈ 9.35 µg/mL)	2.5 ± 0.4 µM (≈ 6.5 µg/mL)	9.0 ± 1.3 µM (≈ 23.4 µg/mL)	7.5 ± 1.0 µM (≈ 19.5 µg/mL)	2.5 ± 0.4 µM (≈ 6.5 µg/mL)	CC[C@H](C)[C@H](NC(=O)CNC(=O)[C@H](CCCNC(=N)N)NC(=O)[C@H](Cc1ccccc1)NC(=O)[C@@H](NC(=O)[C@H](Cc1c[nH]cn1)NC(=O)[C@H](Cc1c[nH]cn1)NC(=O)[C@H](Cc1ccccc1)NC(=O)[C@@H](N)Cc1ccccc1)[C@@H](C)CC)C(=O)N[C@H](C(=O)N[C@@H](Cc1c[nH]cn1)C(=O)N[C@H](C(=O)NCC(=O)N[C@@H](CCCCN)C(=O)N[C@H](CCCCN)C(=O)N[C@H](C(=O)N[C@@H](Cc1c[nH]cn1)C(=O)N[C@@H](CCCNC(=N)N)C(=O)N[C@@H](CC(C)C)C(=O)N[C@H](C(=O)N[C@H](C(=O)NCC(N)=O)[C@@H](C)O)C(C)C)[C@@H](C)CC)C(C)C)C(C)C [T15dK Piscidin-1] (HELM PEPTIDE1{F.F.H.H.I.F.R.G.I.V.H.V.G.K.[dK].I.H.R.L.V.T.G.[am]}$$$$V2.0)	–	–	–	–	–	–
–	–	–	–	–	–	3.14 µM	–	–	–	–	–	Gentamycin [reference compound]	>50 µM	3.2 µM	>100 µM	>100 µM	>100 µM	MIC [6]: 3.26 µM; MIC [7]: 1.6 µM; MIC (B. subtilis (ATCC 6633)): 0.048 µM; MIC [8]: 1.46 µM; MIC [9]: 0.8 µM
15 µM	2.5 ± 0.4 µM	2.5 ± 0.4 µM	5.0 ± 0.7 µM	2.5 ± 0.4 µM	2.5 ± 0.4 µM	3.0 µM	3.8 ± 0.5 µM	2.5 ± 0.4 µM	8.0 ± 1.0 µM	6.0 ± 0.7 µM	1.25 ± 0.3 µM	H-FFHHIFRGIVHVGKTIHRLVTG-NH2 [Piscidin-1]	–	–	–	–	–	–
–	–	–	–	–	–	–	–	–	–	–	–	polymyxin B [reference compound]	–	–	–	–	–	mortality rate of LPS-administered mice [11]: zero

Compound	HC50, peptide concentration leading to 50% lysis of human RBC [10]	Minimum inhibitory conc. (MIC) against bacteria 5 ([1]; ATCC BAA-44)	Minimum inhibitory conc. (MIC) against bacteria 7 ([2]; ATCC 1708)	Minimum inhibitory conc. (MIC) against bacteria 3 ([3]; ATCC 700699)	Minimum inhibitory conc. (MIC) against bacteria 6 ([4]; ATCC 700698)	Minimum inhibitory conc. (MIC) against bacteria 4 ([5]; ATCC 33592)	MIC (E. coli (ATCC 25922); [12])	Minimum inhibitory conc. (MIC) against bacteria 10 [6]	Minimum inhibitory conc. (MIC) against bacteria 2 [7]	Minimum inhibitory conc. (MIC) against bacteria 9 (B. subtilis (ATCC 6633))	Minimum inhibitory conc. (MIC) against bacteria 8 [8]	Minimum inhibitory conc. (MIC) against bacteria 1 [9]	Minimum inhibitory conc. (MIC) against bacteria 5 [1, 13]	Minimum inhibitory conc. (MIC) against bacteria 7 [2, 14]	Minimum inhibitory conc. (MIC) against bacteria 3 [3, 15]	Minimum inhibitory conc. (MIC) against bacteria 6 [4, 16]	Minimum inhibitory conc. (MIC) against bacteria 4 [5, 17]	further results
H-FFHHIFRGIVHVGKKIHRLVTG-NH2 [T15K Piscidin-1]	46 µM	–	–	–	–	–	3.5 µM	3.2 ± 0.4 µM	2.5 ± 0.4 µM	8.5 ± 1.2 µM	7.0 ± 1.0 µM	1.25 ± 0.3 µM	1.25 ± 0.3 µM	2.5 ± 0.4 µM	2.5 ± 0.4 µM	2.5 ± 0.4 µM	1.25 ± 0.3 µM	–
